Assay [1] deals with IL-23-stimulated Kit225 T cells with STAT-dependent luciferase reporter. The experiment in a line: Kit225 T cell assay, IL-23 stimulated STAT-dependent luciferase reporter. The settings on record: Homo sapiens, KIT225, read-out: IL-23 Kit225 Reporter, LE (IC50, uM). The assay is classed as cell-based, human. The method, then: (§1) Kit225 T cells with a stably-integrated STAT-dependent luciferase reporter were plated in RPMI (GIBCO) containing 10% heat-inactivated FBS (GIBCO) and 100 U/mL PenStrep (GIBCO). The cells were then stimulated with either 20 ng/mL human recombinant IL-23 or 200 U/mL human recombinant IFNα (PBL InterferonSource) for 5-6 hours. Luciferase expression was measured using the STEADY-GLO® Luciferase Assay System (PROMEGA®) according to the manufacturer's instructions.

Assay [2] deals with IFNα-stimulated Kit225 T cells with STAT-dependent luciferase reporter. Put plainly: Kit225 T cell assay, IFNα stimulated STAT-dependent luciferase reporter. The assay is classed as cell-based, human. The settings on record: Homo sapiens, KIT225, read-out: IFNa Kit225 Reporter, LE (IC50, uM). The method, then: as §1
For assay [3], the target named is T1, recombinantly expressed His-tagged protein corresponding to amino acids 575-869 of human Tyk2 (Homo sapiens, UniProt P29597).
T1 construct: made in house
Put plainly: Probe displacement assay (scintillation proximity, radiolabeled probe). The assay is classed as binding. The method, then: The probe displacement assay is conducted as follows: In a […], test compounds along with recombinantly expressed His-tagged protein corresponding to amino acids 575-869 of human Tyk2 (sequence shown below) at 2.5 nM, 40 nM ((R)—N-(1-(3-(8-methyl-5-(methylamino)-8H-imidazo[4,5-d]thiazolo[5,4-b]pyridin-2-yl)phenyl)ethyl)-2-([^3H]methylsulfonyl)benzamide) (preparation described below) and 80 μg/mL Copper His-Tag scintillation proximity assay beads (Perkin Elmer, Catalog #RPNQ0095) in 50 mM HEPES, pH 7.5, containing 100 μg/mL bovine serum albumin and 5% DMSO were incubated for 30 minutes at room temperature. […] The IC50 value is defined as the concentration of test compound required to inhibit radiolabeled probe binding by 50%.
Protein Sequence of recombinant Hig-tagged Tyk2 (575-869):
The preparation of radiolabeled probe, (R)—N-(1-(3-(8-methyl-5-(methylamino)-8H-imidazo[4,5-d]thiazolo[5,4-b]pyridin-2-yl)phenyl)ethyl)-2-([^3H]methylsulfonyl)benzamide, was performed as described below: […]

These results are taken from patent publication US10836770B2, “Imidazopyridazine compounds useful as modulators of IL-12, IL-23 and/or INF alpha responses” (priority 2016, dated 2020).

T1 sequence (P29597 with tags, fused parts or gaps): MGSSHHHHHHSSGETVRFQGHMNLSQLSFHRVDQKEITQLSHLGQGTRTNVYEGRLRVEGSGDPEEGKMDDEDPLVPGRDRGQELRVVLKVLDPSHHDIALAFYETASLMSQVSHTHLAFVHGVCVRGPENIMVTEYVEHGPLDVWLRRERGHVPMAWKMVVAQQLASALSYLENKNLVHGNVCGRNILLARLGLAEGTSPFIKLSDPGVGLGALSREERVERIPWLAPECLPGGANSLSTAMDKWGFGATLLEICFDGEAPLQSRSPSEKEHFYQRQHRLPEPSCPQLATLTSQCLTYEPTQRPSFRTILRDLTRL

Regarding `CNc1cc(Nc2cn(C)nc2C(=O)Nc2ccc(N(C)C)cc2)nn2c(C(=O)NC3CC3)cnc12` [Example 27], the IC50 came to 0.02 µM in assay [1] and 0.16 µM in assay [2]. Moreover, the EC50 in assay [3] turned out to be 6.8 nM.

With `CNc1cc(Nc2csnc2C(=O)N[C@@H]2C[C@@H]2F)nn2c(C(=O)NC3CC3)cnc12` [Example 64], the IC50 in assay [1] was 0.08 µM; in assay [2], 0.06 µM. Moreover, the EC50 in assay [3] is 1.99 nM.

Turning to `[2H]C([2H])([2H])NC(=O)c1sccc1Nc1cc(NC)c2ncc(C(=O)NCCO)n2n1` [Example 49], the half-maximal inhibitory concentration (IC50) in assay [1] stood at 0.27 µM; in assay [2] it was 0.26 µM. Further, the EC50 in assay [3] was determined as 40 nM.

As for `CNc1cc(Nc2cc(C(=O)Nc3ccccc3)nn2C)nn2c(C(=O)NC3CC3)cnc12` [Example 40], the IC50 in assay [1] and in assay [2] was 12.5 µM throughout. Also, the EC50 in assay [3] worked out at 80 nM.

Consider `CNc1cc(Nc2cn(C)nc2C(=O)Nc2ccc(F)cc2)nn2c(C(=O)NC3CC3)cnc12` [Example 23], for which the 50% inhibitory concentration (IC50) amounted to 0.43 µM in assay [1] and 0.81 µM in assay [2]. In addition, the half-maximal effective concentration (EC50) in assay [3] amounted to 20 nM.

Regarding `CNC(=O)c1nc(C)sc1Nc1cc(NC)c2ncc(C(=O)NC3CC3)n2n1` [Example 84, 5-((3-(cyclopropylcarbamoyl)-8-(methylamino)imidazo[1,2-b]pyridazin-6-yl)amino)-N,2-dimethylthiazole-4-carboxamide], the half-maximal inhibitory concentration (IC50) in assay [1] turned out to be 0.11 µM; in assay [2], 0.18 µM. The EC50 in assay [3] came to 4.51 nM.

Turning to `[2H]C([2H])([2H])NC(=O)c1sccc1Nc1cc(NC)c2ncc(C(=O)NC3CC3)n2n1` [Example 47], the IC50 in assay [1] was 0.06 µM; in assay [2], 0.05 µM. Moreover, the EC50 in assay [3] was 5.13 nM.

For `CCNC(=O)c1nscc1Nc1cc(NC)c2ncc(C(=O)NCCOC)n2n1` [Example 72], the values for the IC50 in assay [1] and in assay [2] were 0.14 µM and 0.07 µM, respectively. Also, the EC50 in assay [3] was determined as 5.78 nM.

For the compound `CNc1cc(Nc2c[nH]nc2C(=O)Nc2ccc(OC)nc2)nn2c(C(=O)NC3CC3)cnc12` [Example 34], the IC50 was 0.58 µM in assay [1] and 0.81 µM in assay [2]. The EC50 in assay [3] was determined as 2.47 nM.

As to `CNC(=O)c1ncsc1Nc1cc(NC)c2ncc(C(=O)NC3CC3)n2n1` [Example 78, 5-((3-(cyclopropylcarbamoyl)-8-(methylamino)imidazo[1,2-b]pyridazin-6-yl)amino)-N-methylthiazole-4-carboxamide], the results for the 50% inhibitory concentration (IC50) in assay [1] and in assay [2] were 0.12 µM and 0.26 µM, respectively. Also, the EC50 in assay [3] was determined as 10 nM.

As for `CNC(=O)c1cn(C)nc1Nc1cc(NC)c2ncc(C(=O)NC3CC3)n2n1` [Example 35, N-cyclopropyl-6-((1-methyl-4-(methylcarbamoyl)-1H-pyrazol-3-yl)amino)-8-(methylamino)imidazo[1,2-b]pyridazine-3-carboxamide], the IC50 was 1.09 µM in assay [1] and 0.47 µM in assay [2]. The EC50 in assay [3] came out at 4.83 nM.

Consider `CCNC(=O)c1nscc1Nc1cc(NC)c2ncc(C(=O)NC3CC3)n2n1` [Example 62], for which the 50% inhibitory concentration (IC50) in assay [1] stood at 0.54 µM; in assay [2], 0.18 µM. The concentration for a half-maximal effect (EC50) in assay [3] worked out at 9.3 nM.

As for `CNc1cc(Nc2nn(C)cc2C(=O)Nc2ccccc2)nn2c(C(=O)NC3CC3)cnc12` [Example 36], the IC50 in assay [1] was determined as 3.33 µM; in assay [2], 11.9 µM. Also, in assay [3], the 50% effective concentration (EC50) was 130 nM.

On to `CNc1cc(Nc2ccsc2C(=O)NC(C)C)nn2c(C(=O)NC3CC3)cnc12` [Example 44], for which the figures for the IC50 in assay [1] and in assay [2] were 0.14 µM and 0.07 µM, respectively. Further, the half-maximal effective concentration (EC50) in assay [3] was 10 nM.

Take `CNc1cc(Nc2cn(C)nc2C(=O)Nc2cccnc2)nn2c(C(=O)NC3CC3)cnc12` [Example 5]: the values for the IC50 in assay [1] and in assay [2] were 0.34 µM and 0.07 µM, respectively. The EC50 in assay [3] turned out to be 10 nM.

Take `CCNC(=O)c1nscc1Nc1cc(NC)c2ncc(C(=O)N[C@@H]3C[C@@H]3F)n2n1` [Example 73]: the IC50 in assay [1] turned out to be 0.16 µM; in assay [2], 0.2 µM. The EC50 in assay [3] is 20 nM.

For `CNc1cc(Nc2cn(C)nc2C(=O)Nc2ccccn2)nn2c(C(=O)NC3CC3)cnc12` [Example 4], the half-maximal inhibitory concentration (IC50) in assay [1] amounted to 0.35 µM; in assay [2] it was 0.24 µM. Besides, the EC50 in assay [3] came out at 7.6 nM.

Consider `CNc1cc(Nc2cn(C)nc2C(=O)Nc2ccc3ncsc3c2)nn2c(C(=O)NC3CC3)cnc12` [Example 24], for which the values for the IC50 in assay [1] and in assay [2] were 0.28 µM and 0.34 µM, respectively. For the same compound, in assay [3], the EC50 is 8.4 nM.

`CNc1cc(Nc2cn(C)nc2C(=O)NCCCN(C)C)nn2c(C(=O)NC3CC3)cnc12` [Example 18]: the concentration for half-maximal inhibition (IC50) in assay [1] amounted to 0.47 µM; in assay [2], 0.77 µM. The concentration for a half-maximal effect (EC50) in assay [3] worked out at 50 nM.

For `CCn1cc(Nc2cc(NC)c3ncc(C(=O)NC4CC4)n3n2)c(C(=O)Nc2cncnc2)n1` [Example 29], the figures for the IC50 in assay [1] and in assay [2] were 0.24 µM and 1.04 µM, respectively. Moreover, the EC50 in assay [3] was 100 nM.

`CNC(=O)c1cc(Nc2cc(NC)c3ncc(C(=O)NC4CC4)n3n2)nn1C` [Example 41, N-cyclopropyl-6-((1-methyl-5-(methylcarbamoyl)-1H-pyrazol-3-yl)amino)-8-(methylamino)imidazo[1,2-b]pyridazine-3-carboxamide]: the IC50 in assay [1] and in assay [2] was 12.5 µM throughout. The concentration giving a half-maximal response (EC50) in assay [3] was found to be 30 nM.

For the compound `CNc1cc(Nc2c[nH]nc2C(=O)Nc2cccnc2)nn2c(C(=O)NC3CC3)cnc12` [Example 33], the figures for the IC50 in assay [1] and in assay [2] were 1 µM and 5.82 µM, respectively. Also, the EC50 in assay [3] worked out at 30 nM.

As for `CNC(=O)c1nscc1Nc1cc(NC)c2ncc(C(=O)NC3CC3)n2n1` [Example 59, 4-((3-(cyclopropylcarbamoyl)-8-(methylamino)imidazo[1,2-b]pyridazin-6-yl)amino)-N-methylisothiazole-3-carboxamide], the half-inhibitory concentration (IC50) in assay [1] was 0.01 µM; in assay [2] it was 0.03 µM. The EC50 in assay [3] stood at 1.93 nM.

With `CNC(=O)c1n[nH]cc1Nc1cc(NC)c2ncc(C(=O)NC3CC3)n2n1` [Example 32, N-cyclopropyl-6-((3-(methylcarbamoyl)-1H-pyrazol-4-yl)amino)-8-(methylamino)imidazo[1,2-b]pyridazine-3-carboxamide], the IC50 worked out at 0.83 µM in assay [1] and 1.65 µM in assay [2]. Further, in assay [3], the 50% effective concentration (EC50) stood at 30 nM.

With `CNc1cc(Nc2cn(C)nc2C(=O)NC(C)C)nn2c(C(=O)NC3CC3)cnc12` [Example 9], the results for the 50% inhibitory concentration (IC50) in assay [1] and in assay [2] were 0.65 µM and 0.48 µM, respectively. Moreover, the EC50 in assay [3] was 30 nM.

Regarding `CNc1cc(Nc2scnc2C(=O)Nc2ccccc2)nn2c(C(=O)NC3CC3)cnc12` [Example 82], the IC50 in assay [1] is 0.19 µM; in assay [2], 0.35 µM. Besides, the EC50 in assay [3] was found to be 3.95 nM.

As for `[2H]C([2H])([2H])NC(=O)c1nn(C)cc1Nc1cc(NC)c2ncc(C(=O)NC3CC3)n2n1` [Example 10], the half-inhibitory concentration (IC50) was 0.96 µM in assay [1] and 0.4 µM in assay [2]. In assay [3], the half-maximal effective concentration (EC50) is 30 nM.

For `CNc1cc(Nc2cn(C)nc2C(=O)Nc2ccncc2)nn2c(C(=O)NC3CC3)cnc12` [Example 6], the IC50 in assay [1] stood at 0.07 µM; in assay [2], 0.19 µM. In assay [3], the EC50 stood at 3.84 nM.

`CNC(=O)c1cc(Nc2cc(NC)c3ncc(C(=O)NC4CC4)n3n2)n(C)n1` [Example 39, N-cyclopropyl-6-((1-methyl-3-(methylcarbamoyl)-1H-pyrazol-5-yl)amino)-8-(methylamino)imidazo[1,2-b]pyridazine-3-carboxamide]: the concentration for half-maximal inhibition (IC50) in assay [1] and in assay [2] was 12.5 µM throughout. For the same compound, in assay [3], the EC50 worked out at 1270 nM.

On to `CNc1cc(Nc2cn(C)nc2C(=O)Nc2ccc(OC)cc2)nn2c(C(=O)NC3CC3)cnc12` [Example 12], for which the values for the IC50 in assay [1] and in assay [2] were 0.12 µM and 0.11 µM, respectively. Besides, the EC50 in assay [3] came out at 7.59 nM.

As for `CNC(=O)c1occc1Nc1cc(NC)c2ncc(C(=O)NC3CC3)n2n1` [Example 51, N-cyclopropyl-8-(methylamino)-6-((2-(methylcarbamoyl)furan-3-yl)amino)imidazo[1,2-b]pyridazine-3-carboxamide], the IC50 was 0.05 µM in assay [1] and 0.04 µM in assay [2]. In assay [3], the concentration for a half-maximal effect (EC50) worked out at 3.79 nM.

For the compound `[2H]C([2H])([2H])NC(=O)c1nscc1Nc1cc(NC)c2ncc(C(=O)NCc3nccs3)n2n1` [Example 70], the half-inhibitory concentration (IC50) came to 0.42 µM in assay [1] and 0.11 µM in assay [2]. In addition, the EC50 in assay [3] was determined as 20 nM.

As to `CNc1cc(Nc2cn(C)nc2C(=O)Nc2ccccc2F)nn2c(C(=O)NC3CC3)cnc12` [Example 25], the IC50 was found to be 0.13 µM in assay [1] and 0.19 µM in assay [2]. In addition, the EC50 in assay [3] worked out at 8.89 nM.

With `CNc1cc(Nc2csnc2C(=O)Nc2ccc(OC)cc2)nn2c(C(=O)NC3CC3)cnc12` [Example 63], the half-maximal inhibitory concentration (IC50) in assay [2] worked out at 0.29 µM. Further, the EC50 in assay [3] was 6.04 nM.
